{
  "source": "patent US12653891B2",
  "about": "“Stable glucocorticoid formulation” (AVM Biotechnology, LLC, priority 2018, dated 2026)",
  "origin": "cited, not measured here",
  "key": {"[1]": {"experiment": "not given", "remark": "listed apart in the source"}},
  "note": "Counter-ions that a name gives are not always drawn. Like-named read-outs stand apart in the source and are kept apart here.",
  "data": [
    {"compound": "C[C@@H]1C[C@H]2[C@@H]3CCC4=CC(=O)C=C[C@]4(C)[C@@]3(F)[C@@H](O)C[C@]2(C)[C@@]1(O)C(=O)COP(=O)(O)O", "note": "[Dexamethasone phosphate (as sodium), 9-fluoro-11b,17,21-trihydroxy-16a-methylpregna-1,4-diene-3,20-dione 21-(dihydrogen phosphate) Disodium Salt]", "values": [
      {"measurement": "Solubility in alcohol", "setting": "alcohol", "value": "slightly soluble"},
      {"measurement": "Solubility in chloroform and ether", "setting": "chloroform and ether", "value": "practically insoluble"},
      {"measurement": "Solubility in dioxan", "setting": "dioxan", "value": "very slightly soluble"}
    ]},
    {"compound": "CC(O)CO", "note": "(stereo not shown) [Propylene glycol]", "values": [
      {"measurement": "Threshold (EMA/CHMP/334655/2013)", "setting": "[1]; 5 years up to 17 years and adults", "value": 500, "unit": "mg/kg"},
      {"measurement": "Threshold (EMA/CHMP/334655/2013)", "setting": "[1]; 29 days up to 4 years", "value": 50, "unit": "mg/kg"},
      {"measurement": "Amount that can accumulate and cause lactic acidosis, CNS depression, coma, hypoglycemia, seizures, hemolysis", "setting": "[1]; IV", "value": "≥ 3", "unit": "g/day"},
      {"measurement": "Threshold (EMA/CHMP/334655/2013)", "setting": "[1]; neonates up to 28 days", "value": 1, "unit": "mg/kg"}
    ]}
  ]
}
